Data reported in paper PMC6476181 (ChemMedChem, 2019).

What was measured:
[1] = system: 57 diverse kinases; experiment: Kinase selectivity panel of 57 diverse kinases; assay type: biochemical; settings: 10 µM
[2] = system: proliferation and viability of cells; experiment: Trypan blue exclusion, cells treated for 3 days; assay type: cell-based; settings: comparison against genistein at 10 µM, p < 0.05
[3] = system: cancer cell motility and migration; experiment: Wound scratch assay; assay type: cell-based
[4] = target: T1, MEK4 (Homo sapiens, UniProt P45985); settings: cited from earlier work
T1 sequence (P45985 1-399): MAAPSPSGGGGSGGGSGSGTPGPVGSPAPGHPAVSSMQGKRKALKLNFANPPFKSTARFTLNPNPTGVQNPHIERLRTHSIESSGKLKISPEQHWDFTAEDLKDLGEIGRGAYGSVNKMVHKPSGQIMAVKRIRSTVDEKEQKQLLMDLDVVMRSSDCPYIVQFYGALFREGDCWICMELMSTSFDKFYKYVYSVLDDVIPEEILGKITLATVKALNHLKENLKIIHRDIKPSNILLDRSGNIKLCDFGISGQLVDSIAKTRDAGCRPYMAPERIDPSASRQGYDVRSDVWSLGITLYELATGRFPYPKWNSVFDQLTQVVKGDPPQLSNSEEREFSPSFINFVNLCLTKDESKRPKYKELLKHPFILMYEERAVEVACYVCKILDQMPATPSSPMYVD

[5] = target: T2, MEK7 (Homo sapiens, UniProt O14733); settings: cited from earlier work
T2 sequence (O14733 1-419): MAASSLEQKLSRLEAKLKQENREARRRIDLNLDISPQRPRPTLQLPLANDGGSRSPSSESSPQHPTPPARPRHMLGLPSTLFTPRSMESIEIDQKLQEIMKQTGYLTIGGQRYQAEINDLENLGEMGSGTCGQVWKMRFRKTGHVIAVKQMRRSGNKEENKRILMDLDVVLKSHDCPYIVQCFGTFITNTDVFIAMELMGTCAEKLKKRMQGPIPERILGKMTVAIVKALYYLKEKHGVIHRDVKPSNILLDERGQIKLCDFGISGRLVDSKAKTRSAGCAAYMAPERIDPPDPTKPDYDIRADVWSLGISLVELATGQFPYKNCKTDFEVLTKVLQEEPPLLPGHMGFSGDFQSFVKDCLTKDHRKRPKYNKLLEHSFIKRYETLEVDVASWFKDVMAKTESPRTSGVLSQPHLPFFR

[6] = system: Cot; settings: ref 10a; cited from earlier work
[7] = target: T1, MEK4; experiment: TR-FRET displacement of active site tracer; assay type: binding; settings: 10 µM

In the case of O=C(O)c1ccc(-c2n[nH]c3cc(F)ccc23)cc1 [Compound 6ff, 4-(6-fluoro-2H-indazol-3-yl)benzoic acid], the “number of kinases inhibited > 35% out of 57 tested” value [1] was 12, the “S(35) value” ([1]; 57 kinases) was 0.21 and the “toxicity (proliferation and viability, trypan blue exclusion)” value [2] was “less toxicity compared to the promiscuous kinase inhibitor genistein”. For the same compound, the “efficacy in wound scratch assay” value ([3]; 10 µM) was “no efficacy” and the “efficacy in wound scratch assay” value ([3]; 25 µM) was “no efficacy”.

In the case of COc1ccc2c(Cc3ccc(O[Si](C)(C)C(C)(C)C)cc3)c3[n+](cc2c1OC)CCc1cc2c(cc1-3)OCO2 [HWY336], the “inhibition of MEK4” value [4] is listed as “inhibits both MEK4 and MEK7” and the “inhibition of MEK7” value [5] is listed as “inhibits both MEK4 and MEK7”.

In the case of O=c1c(-c2ccc(O)c(O)c2)coc2cc(O)ccc12 [THIF, 7, 3’, 4’-trihydroxyisoflavone], the “inhibition of Cot activity” value [6] is listed as “inhibits Cot activity”.

With CN[C@@H]1C[C@H]2O[C@@](C)([C@@H]1OC)n1c3ccccc3c3c4c(c5c6ccccc6n2c5c31)C(=O)NC4 [staurosporine] the “TR-FRET ratio, displacement of tracer bound to MEK4 active site” value [7] was “background levels”.
